Assay results: patent publication US20080045467A1, “Composition Containing Ginsenoside F1 Or Compound K For Skin External Application” (Amorepacific Corporation, priority 2004, published 2008)

Experiments:
MMP-2 = assay: Inhibition of biosynthesis of MMP-2 in UVB-irradiated human keratinocyte (gelatin zymography); type: cell-based; conditions: 30 mJ/cm^2 UVB, 2 days, amount relative to control group = 100
Method: (§1) Human keratinocyte was cultured with a concentration of 10^4 cells/well in 24-well plate mediums, and 24 hours later they were irradiated with 30 mJ/cm^2 of UVB. Each medium was then exchanged with a new one containing the compound separated in either Example 1 or 2 at the densities of 0.1 ppm, 1 ppm or 10 ppm, respectively. After 2 days of cultivation, the supernatants were obtained and gelatin zymography was performed on the obtained supernatant to form MMP-2 and MMP-9. The amount of MMP-2 and MMP-9 thus formed was determined by densitometer for each medium, and was compared with the amount of MMP-2 and MMP-9 in the control group, which was set as 100 (The mediums not containing the compounds in Examples 1 and 2 were cultured as a control group).

MMP-9 = assay: Inhibition of biosynthesis of MMP-9 in UVB-irradiated human keratinocyte (gelatin zymography); type: cell-based; conditions: 30 mJ/cm^2 UVB, 2 days, amount relative to control group = 100
Method: as §1

Type IV collagen = assay: Biosynthesis of Type IV collagen in human keratinocyte (Dot Blot); type: cell-based; conditions: 24 hours, control = 100
Method: (§2) Human keratinocyte was cultured with a concentration of 5×10^4 cells/well in 24-well plate mediums, and each medium was exchanged with a new one containing the compound separated in either example 1 or 2 at the densities of 0.1 ppm, 1 ppm or 10 ppm. After 24 hours of cultivation, the supernatants were harvested and the amount of Type IV collagen was quantified using Dot Blot method.

Type VII collagen = assay: Biosynthesis of Type VII collagen in human fibroblast (Dot Blot); type: cell-based; conditions: 24 hours, control group = 100
Method: as §2, with “fibroblast” for “keratinocyte”, “10^4” for “5×10^4”, “Example” for “either example”, “VII” for “IV”

laminin 10/11 = assay: Biosynthesis of laminin 10/11 in human keratinocyte (Dot Blot); type: cell-based; conditions: 24 hours, control group = 100
Method: as §2, with “Example” for “example”, “laminin 10/11” for “Type IV collagen”

[1] = tested on: epidermal-dermal junction; assay: Change in epidermal-dermal junction of UV-irradiated nude mouse (electron microscope); type: in vivo; conditions: applied while irradiating with UV light, compared to comparative formulation 1
Method: In order to verify the change to the epidermal-dermal junction irradiated with UV light by the composition of the present invention, external applications with the formulation of nutrition cream were prepared according to the ratios in Table 5.
Each of the formulations 1˜3 and the comparative formulation 1 were applied to the back of each nude mouse 5 times in a week for 2 weeks, and for 12 weeks thereafter each of the formulations 1˜3 and the comparative formulation 1 were applied 5 times per week while irradiating UV light 3 times. After biopsy, the change of the epidermal-dermal junction was determined by electron microscope.

For CC(C)=CCC[C@](C)(O[C@@H]1O[C@H](CO)[C@@H](O)[C@H](O)[C@H]1O)[C@H]1CC[C@]2(C)[C@@H]1[C@H](O)C[C@@H]1[C@@]3(C)CC[C@H](O)C(C)(C)[C@@H]3CC[C@]12C [Example 2, 20-O-β-D-glucopyranosyl-20(S)-protopanaxadiol], the “MMP-2 (%)” value (MMP-2; 0.1 ppm) was 79%, the “MMP-2 (%)” value (MMP-2; 1 ppm) was 61% and the “MMP-2 (%)” value (MMP-2; 10 ppm) was 48%. For the same molecule, the “MMP-9 (%)” value (MMP-9; 0.1 ppm) was 78%, the “MMP-9 (%)” value (MMP-9; 1 ppm) was 62% and the “MMP-9 (%)” value (MMP-9; 10 ppm) was 49%. For the same molecule, the “Biosynthesis of Type IV collagen (%)” value (Type IV collagen; 0.1 ppm) was 119%, the “Biosynthesis of Type IV collagen (%)” value (Type IV collagen; 1 ppm) was 128% and the “Biosynthesis of Type IV collagen (%)” value (Type IV collagen; 10 ppm) was 139%. For the same molecule, the “Biosynthesis of Type VII collagen (%)” value (Type VII collagen; 0.1 ppm) was 120%, the “Biosynthesis of Type VII collagen (%)” value (Type VII collagen; 1 ppm) was 135% and the “Biosynthesis of Type VII collagen (%)” value (Type VII collagen; 10 ppm) was 146%. The “Biosynthesis of laminin 10/11 (%)” value (laminin 10/11; 0.1 ppm) was 115%, the “Biosynthesis of laminin 10/11 (%)” value (laminin 10/11; 1 ppm) was 125% and the “Biosynthesis of laminin 10/11 (%)” value (laminin 10/11; 10 ppm) was 137%. For the same molecule, the “change, separation or multiplexing of the epidermal-dermal junction” value [1] was “little change, separation or multiplexing”.
In the case of CC(C)=CCC[C@](C)(O[C@@H]1O[C@H](CO)[C@@H](O)[C@H](O)[C@H]1O)[C@H]1CC[C@]2(C)[C@@H]1[C@H](O)C[C@@H]1[C@@]3(C)CC[C@H](O)C(C)(C)[C@@H]3[C@@H](O)C[C@]12C [Example 1, 20-O-β-D-glucopyranosyl-20(S)-protopanaxatriol], the “MMP-2 (%)” value (MMP-2; 0.1 ppm) is reported as 82%, the “MMP-2 (%)” value (MMP-2; 1 ppm) is reported as 67% and the “MMP-2 (%)” value (MMP-2; 10 ppm) is reported as 51%. The “MMP-9 (%)” value (MMP-9; 0.1 ppm) was 85%, the “MMP-9 (%)” value (MMP-9; 1 ppm) was 69% and the “MMP-9 (%)” value (MMP-9; 10 ppm) was 55%. For the same molecule, the “Biosynthesis of Type IV collagen (%)” value (Type IV collagen; 0.1 ppm) was 116%, the “Biosynthesis of Type IV collagen (%)” value (Type IV collagen; 1 ppm) was 129% and the “Biosynthesis of Type IV collagen (%)” value (Type IV collagen; 10 ppm) was 134%. The “Biosynthesis of Type VII collagen (%)” value (Type VII collagen; 0.1 ppm) was 118%, the “Biosynthesis of Type VII collagen (%)” value (Type VII collagen; 1 ppm) was 132% and the “Biosynthesis of Type VII collagen (%)” value (Type VII collagen; 10 ppm) was 141%. The “Biosynthesis of laminin 10/11 (%)” value (laminin 10/11; 0.1 ppm) was 112%, the “Biosynthesis of laminin 10/11 (%)” value (laminin 10/11; 1 ppm) was 125% and the “Biosynthesis of laminin 10/11 (%)” value (laminin 10/11; 10 ppm) was 134%. For the same molecule, the “change, separation or multiplexing of the epidermal-dermal junction” value [1] was “little change, separation or multiplexing”.
